Measured values taken from PMC3425544, “The S100A10 Subunit of the Annexin A2 Heterotetramer Facilitates L2-Mediated Human Papillomavirus Infection” (PLoS ONE, 2012).

Columns and labels:
[1] = system: A2t (annexin A2 heterotetramer); experiment: EPR binding of L2 peptide to A2t; parameters: species or system human; conditions: mean of three separate experiments
Description: Next, we wanted to determine if there was a specific interaction between the L2_108–126 peptide and A2t using electron paramagnetic resonance (EPR) spectroscopy. EPR is a method of magnetic resonance spectroscopy measuring unpaired electrons whose underlying basic concepts are not unlike the more widely used technique of nuclear magnetic resonance (NMR) (reviewed in [43]). When coupled with site-directed paramagnetic-labeling, such as the attachment of a moiety with an unpaired electron to a cysteine residue, EPR can be used to obtain structural information within a small vicinity of the paramagnetic-label’s positions along the protein sequence. As a paramagnetic-label becomes locally constrained, such as when bound to another protein, its spectra will drastically change as visualized by a decrease in line amplitude and increased line-broadening. Therefore, EPR provides an in vitro biochemical method that measures protein-protein interactions by monitoring changes in the spectra recorded for a labeled protein in different experimental settings.
For our purposes, an N-terminal cysteine (with a 3 native aa spacer) contained in the L2_108–126 peptide (C-IVS-[…]) was paramagnetic-labeled (an unpaired-electron-containing small molecule was cross-linked via a disulfide bond to the peptide), and its spectra were analyzed after incubation with and without purified human recombinant A2t or controls. […]
Recombinant annexin A2 was expressed in BL21(DE3) Escherichia coli cells and purified using reversible Ca^2+-dependent binding to negatively charged phospholipid vesicles followed by size exclusion chromatography. […] Concentrations of all proteins and peptides, including the A2t complex, were determined using bicinchoninic acid assays (Pierce Thermo Scientific, Rockford, IL) compared to measured absorbance of albumin standards at 562 nm. […]

annexin A2 = experiment: EPR binding of L2 peptide to annexin A2
Description: Recombinant annexin A2 was expressed in BL21(DE3) Escherichia coli cells and purified using reversible Ca^2+-dependent binding to negatively charged phospholipid vesicles followed by size exclusion chromatography. A pET23A vector containing the S100A10 sequence (a gift from Volker Gerke) was expressed in BL21(DE3) cells as previously described. Both proteins were stored at 4°C in 20 mM HEPES buffer at pH 7.4, containing 100 mM NaCl with the addition of 1 mM dithiothreitol. Concentrations of all proteins and peptides, including the A2t complex, were determined using bicinchoninic acid assays (Pierce Thermo Scientific, Rockford, IL) compared to measured absorbance of albumin standards at 562 nm. Purified annexin A2 and S100A10 were combined at a molar ratio of 1∶1 and concentrated to over 8 µg/µl. The mixture was incubated overnight at 4°C, and then loaded onto a superdex 200 10/300 GL (GE Healthcare USA) column equilibrated in the previously mentioned HEPES buffer. The eluted A2t peak was collected and subjected to peptide binding assays.
The L2_108–126 peptides used in our EPR studies were synthesized with a cysteine at the N-terminus, and followed by a spacer of 3 physiological amino acids (C-IVS) preceding the canonical L2_108–126 and L2 scrambled sequences (C-IVS-[…] and C-IVS-[…] respectively). Peptides were combined with 8× molar excess paramagnetic label (1-oxyl-2, 2, 5, 5-tetramethyl-Δ3-pyrroline-3-methyl) (R1) methanethiosulfonate (MTSL), (Toronto Research Chemicals, Canada) and left to react overnight at 4°C. Free label was removed by gel filtration (PD10 GE, United Kingdom). All peptides were solubilized into HEPES buffer. For competition assays, the scrambled peptide was non-paramagnetic labeled with an N-acetylated MTSL paramagnetic-label analog (1-acetyl-2,2,5,5- tetramethyl-Δ3-pyrroline-3-methyl) (R1′) at an 8× molar excess to emulate the paramagnetic label on control peptides. Binding interactions were examined by combining paramagnetically-labeled L2 peptide with A2t, BSA, ANXA2, or S100A10 (20 µM, 100 µM, 100 µM, 100 µM, and 100 µM respectively) in 10 µL volumes of the HEPES buffer, confined by glass capillaries, and measured at room temperature over a period of 24 hours using a Bruker EMX X-band EPR spectrometer. For the cysteine blocked S100A10, S100A10 was treated with R1′ and excess label was removed via gel filtration (see above) before the addition of paramagnetic labeled peptides. […] To quantify the amount of bound peptide spectra of all tested proteins in combination with the L2_108–126 or ScrL2 peptides were compared to the spectra of L2_108–126 or ScrL2 peptides alone in solution using a spectra analyzing software (EPR 130, University of California, Los Angeles). […]

HepG2 cell line = conditions: ref [28]; cited from earlier work
Description: Nonetheless, the link between HSV and H ...

C-IVS-LVEETSFIDAGAPTSVPSI [L2_108–126, HPV16 L2 aa 108–126 peptide with N-terminal cysteine and IVS spacer]
relative % bound to A2t ([1]; 20 µM paramagnetic-labeled (MTSL) L2 peptide, 100 µM A2t, HEPES pH 7.4, room temperature): 78.0%
relative % bound to A2t in presence of ScrL2 ([1]; non-paramagnetic-labeled ScrL2 to WT L2_108–126 5∶1 molar ratio): 75.8%
relative % bound to annexin A2 (annexin A2; 20 µM peptide, 100 µM ANXA2, mean of three separate experiments): 23.6%
interaction with annexin A2 subunit (annexin A2; discussion): minimal interaction
relative % bound to annexin A2 in presence of ScrL2 (annexin A2; scrambled peptide 5∶1, mean of three separate experiments): 17.7%
binding to A2t-deficient HepG2 cells vs cervical cancer cell lines (HepG2 cell line): bind significantly less
